Test system: colorectal (HCT116), breast (MCF-7) and non-small cell lung (H1299, A549, H358 and H460) cell line models
Assay: Colony forming assay
Format: cell-based
Settings: FUdR between 0.5 and 2.5 μmol/L; all cell lines evaluated
Protocol: Colony forming assay showing the ability of colon (SW620, HCT116), non-small cell lung (A549, H460, H1299 and H358) and breast (MCF7) cancer cells to survive and proliferate following transient 24 hour exposure to test compounds, FUdR and combinations are determined. Specifically, cells are seeded at densities between 50 and 100 cells/well in 24-well plates. Twenty-four hours later, cells are treated with increasing concentrations of a rtest compound, a fixed dose of FUdR and combinations of these. After 24 hours, drug is removed, cells are rinsed and allowed to outgrow for 10-14 days. At the conclusion of the outgrowth, cells are fixed in 60% ice cold methanol and stained with 0.1% crystal violet, scanned and counted. Data is presented as percentage of untreated controls (mean±SD). Fraction affected and combination indexes are calculated according to the method of Chou and Talalay where <1 is indicative of a synergistic drug interaction.
Colony forming assays are performed to evaluate the effectiveness of test compounds alone and in combination with the fluoropyrimidine thymidylate synthase (TS) inhibitor fluorodeoxyuridine (FUdR) at reducing cancer cell viability in colorectal (HCT116), breast (MCF-7) and non-small cell lung (H1299, A549, H358 and H460) cell line models. […]

For `O=c1[nH]c(=O)n([C@H]2C[C@H](O)[C@@H](CO)O2)cc1F` [FUdR, fluorodeoxyuridine], the colonies formed was “dose-dependent decreases in colonies formed”.

Molecular target: recombinant human deoxyuridine nucleotidohydrolase (dUTPase) (Homo sapiens (Human), UniProt P33316)
Assay: fluorescence-based dUTPase inhibition assay
Format: biochemical
Settings: mean over three concentrations, typically 100, 50 and 25 μmol/L, compared to in-run positive control
Text: Recombinant human deoxyuridine nucleotidohydrolase (dUTPase) is expressed and purified as described in Ladner R D, Carr S A, Huddleston M J, McNulty D E, Caradonna S J. J Biol Chem. 1996 Mar. 29; 271(13):7752-7. All drugs stocks are aliquoted and diluted as appropriate prior to use. The oligonucelotide primer, templates and fluorophore- and quencher-labeled detection probes are synthesized by Integrated DNA Technologies (Coralville, Iowa), subjected to polyacrylamide gel electrophoresis purification and reconstituted in Omnipur sterile nuclease-free water (EMD Chemicals USA, Gibbstown N.J.) at a stock concentration of 100 μmol/L. The two non-emissive (dark) quenching molecules incorporated into the detection probes include the Iowa black fluorescein quencher (IBFQ; absorption max 531 nm) and ZEN (non-abbreviation; absorption max 532 nm). The fluorescent label utilized is 6-FAM (5′-carboxyfluorescein; excitation max.=494 nm, emission max.=520 nm). Probes are further diluted to a working stock of 10 μmol/L and aliquoted to avoid repeated freeze/thaw cycles. AmpliTaq Gold DNA Polymerase, GeneAmp 10×PCR Buffer 2, MgCl2 and MicroAmp Optical 96-well Reaction Plates are purchased from Applied Biosystems (Carlsbad, Calif.). dNTPs are purchased individually at stock concentrations of 100 mmol/L from New England Biolabs at HPLC-certified >99% purity (Ipswich, Mass.).
Reaction mixtures contained primer, probe and template at an equimolar final concentration of 0.4 μmol/L. Magnesium chloride (MgCl2) is included at a final concentration of 2 mmol/L. Non-limiting dNTPs are included in the reaction mix in excess at a final concentration of 100 μmol/L (dUTP/dTTP is excluded). AmpliTaq Gold DNA polymerase is added at 0.875 U/reaction, 2.5 μl of 10×PCR buffer 2 added and nuclease-free ddH2O added to a final reaction volume of 25 μl. For dUTP inhibition analysis, the volume of ddH2O is further modified to accommodate an additional 1 μl of dUTPase (10 ng/μl) and 1 μl of inhibitor or DMSO control. Thermal profiling and fluorescence detection is performed using a customized thermal program on board a Roche Lightcycler LC480 Instrument II. For analysis of dNTPs, the thermal profile consisted of an 8 min 37° C. step followed by a 10 min 95° C. step to ‘hot-start’ the Taq polymerase and a primer extension time of up to 30 min at 60° C. Raw fluorescence spectra for 6-FAM is measured at specified time intervals to follow assay progression on board a Roche LightCycler 480 Software Version 1.5 and exported and analyzed in Microsoft Excel (Microsoft, Redmond Wash.) and Prism (GraphPad Software, La Jolla Calif.). Fluorescence values for blank reactions (limiting dNTP omitted) are subtracted to give normalized fluorescence units (NFU) to account for background fluorescence.
Test compounds are screened in a fluorescence-based assay. The assay employs a DNA polymerase-based approach utilizing an oligonucleotide template with 3 distinct regions: a 3′ primer binding region, a mid-template dUTP/thymidine triphosphate (TTP) detection region and a 5′ 6-[…] (FAM)-labeled probe binding region that incorporates a black hole quenching moiety. During the reaction, the probe and primer hybridize to the oligonucleotide template to form the template:primer:probe complex. When Taq polymerase binds to the primer in the TPP complex and dUTP is present, successful extension of the nascent strand occurs and the inherent 5′ to 3′ exonuclease activity of Taq polymerase cleaves and displaces the 6-FAM-labeled probe in a 5′ to 3′ direction, releasing the 6-FAM fluorophore from its proximity to the three quenchers. This displacement effectively disrupts the Förster resonance energy transfer (FRET) and the resulting fluorescence detected upon excitation is directly proportional to the amount of the dUTP available in the assay for incorporation. […]

recombinant human deoxyuridine nucleotidohydrolase (dUTPase), sequence (P33316 other isoform, or with tags, fused parts or gaps): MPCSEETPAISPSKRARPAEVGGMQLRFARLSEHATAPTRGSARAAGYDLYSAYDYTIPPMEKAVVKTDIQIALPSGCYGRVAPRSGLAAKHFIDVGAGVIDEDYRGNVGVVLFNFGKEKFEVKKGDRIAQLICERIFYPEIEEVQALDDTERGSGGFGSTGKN

First: C[C@@H](NS(=O)(=O)CCCOCN1CC(=O)NC1=O)c1cccc(OCC2CC2)c1 [Example 115, (R)—N-(1-(3-(cyclopropylmethoxy)phenyl)ethyl)-3-((2,4-dioxoimidazolidin-1-yl)methoxy)propane-1-sulfonamide]
Second: CC(C)COc1cc([C@@H](C)NS(=O)(=O)CCCOCN2CC(=O)NC2=O)ccc1F [Example 116, (R)-3-((2,4-dioxoimidazolidin-1-yl)methoxy)-N-(1-(4-fluoro-3-isobutoxyphenyl)ethyl)propane-1-sulfonamide]
The “% relative inhibition vs. positive control” value of the first is lower: 164% for the first, 173% for the second.

Going from `O=C1CN(COCCCS(=O)(=O)NC2(c3ccc(F)c(OCC4CC4)c3)CC2)C(=O)N1` [compound 120, N-(1-(3-(cyclopropylmethoxy)-4-fluorophenyl)cyclopropyl)-3-((2,4-dioxoimidazolidin-1-yl)methoxy)propane-1-sulfonamide] to `C[C@H]1C(=O)NC(=O)N1COCCCS(=O)(=O)NC1(c2ccc(F)c(OCC3CC3)c2)CC1` [compound 124, (S)—N-(1-(3-(cyclopropylmethoxy)-4-fluorophenyl)cyclopropyl)-3-((5-methyl-2,4-dioxoimidazolidin-1-yl)methoxy)propane-1-sulfonamide], the “% relative inhibition vs. positive control” value falls from 172% to 153%.

Going from `CC1(C)C(=O)NC(=O)N1C/C=C/CCS(=O)(=O)NC1(c2ccc(F)c(OCC(F)F)c2)CC1` [compound 121, (E)-N-(1-(3-(2,2-difluoroethoxy)-4-fluorophenyl)cyclopropyl)-5-(5,5-dimethyl-2,4-dioxoimidazolidin-1-yl)pent-3-ene-1-sulfonamide] to `C[C@H]1C(=O)NC(=O)N1C/C=C/CCS(=O)(=O)NC1(c2ccc(F)c(OCC(C)(C)O)c2)CC1` [compound 122, (S,E)-N-(1-(4-fluoro-3-(2-hydroxy-2-methylpropoxy)phenyl)cyclopropyl)-5-(5-methyl-2,4-dioxoimidazolidin-1-yl)pent-3-ene-1-sulfonamide], the “% relative inhibition vs. positive control” value rises from 21% to 40%.

Compared with `C[C@@H](NS(=O)(=O)CC/C=C/CC1CC(=O)NC1=O)c1ccc(F)c(OCC2CC2)c1` (stereo partly drawn) [compound 125, (E)-N—((R)-1-(3-(cyclopropylmethoxy)-4-fluorophenyl)ethyl)-5-(2,5-dioxopyrrolidin-3-yl)pent-3-ene-1-sulfonamide], `C[C@@H](NS(=O)(=O)CCCCCC1CC(=O)NC1=O)c1ccc(F)c(OCC2CC2)c1` (stereo partly drawn) [compound 126, N—((R)-1-(3-(cyclopropylmethoxy)-4-fluorophenyl)ethyl)-5-(2,5-dioxopyrrolidin-3-yl)pentane-1-sulfonamide] is higher in “% relative inhibition vs. positive control” value: 71% for the first, 152% for the second.

With `C[C@H](NS(=O)(=O)CCCCCN1CC(=O)NC1=O)c1ccc(F)c(OCCC2CC2)c1` [compound 128, (S)—N-(1-(3-(2-cyclopropylethoxy)-4-fluorophenyl)ethyl)-5-(2,4-dioxoimidazolidin-1-yl)pentane-1-sulfonamide] the “% relative inhibition vs. positive control” value was 53%.

Test system: colorectal (HCT116 and SW620) cell line models
Assay: MTS growth inhibition assay
Format: cell-based
Settings: 5-FU between 0 and 100 μmol/L; both colorectal cancer cell lines
Protocol: The Cell Titer AQueous MTS assay (Promega) is carried out according to the manufacturers guidelines. […] The combination effect is determined by the combination index (CI) method utilizing Calcusyn software (Biosoft, Ferguson, Mo.). Fraction affected (FA) is calculated from the percent growth inhibition: FA=[…]. CI values <1, synergism; 1-1.2, additive and >1.2, antagonism.
MTS growth inhibition assays are performed to evaluate the effectiveness of the test compounds alone and in combination with the fluoropyrimidine thymidylate synthase (TS) inhibitor 5-fluorouracil (5-FU) at inhibiting the growth of colorectal (HCT116 and SW620) cell line models. […] Simultaneous treatment with increasing concentrations of 5-FU and a test compound at fixed concentrations of 25 μmol/L is determined.

In the case of `O=c1[nH]cc(F)c(=O)[nH]1` [5-FU, 5-fluorouracil], the growth inhibition is reported as “dose-dependent increases in growth inhibition”.
